“Also recorded” adds a separate entry of the source. Like-named read-outs stand apart in the source and are kept apart here.
Assays:
[1] = biological target: TbDHFR-TS (Trypanosoma brucei brucei, UniProt Q27783); experiment: TbDHFR-TS inhibition, spectrophotometric DHF reduction assay (dose-response); type: biochemical; conditions: recombinant TbDHFR-TS; 40, 20 and 10 µM tested; standard errors within ± 10%
[2] = biological target: T1, LmPTR1 (Leishmania major, UniProt Q01782); experiment: LmPTR1 inhibition, Cytochrome C coupled spectrophotometric assay; type: biochemical; conditions: for IC50: recombinant protein, standard errors within ± 10%; for inhibition at 10 µM: primary screening, read-out: percentage of inhibition LmPTR1
T1 sequence (Q01782 1-288): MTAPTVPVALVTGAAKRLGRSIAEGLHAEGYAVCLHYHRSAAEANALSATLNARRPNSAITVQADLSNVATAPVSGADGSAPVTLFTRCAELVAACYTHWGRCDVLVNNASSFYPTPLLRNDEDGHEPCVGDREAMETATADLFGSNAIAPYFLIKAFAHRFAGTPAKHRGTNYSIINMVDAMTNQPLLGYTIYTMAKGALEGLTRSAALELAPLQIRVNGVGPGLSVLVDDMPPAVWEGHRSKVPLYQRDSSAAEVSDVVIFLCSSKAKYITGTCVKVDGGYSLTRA

[3] = biological target: LmDHFR-TS (Leishmania major, UniProt P07382); experiment: LmDHFR-TS inhibition, spectrophotometric DHF reduction assay (dose-response); type: biochemical; conditions: recombinant LmDHFR-TS; 40, 20 and 10 µM tested; standard errors within ± 10%
Chain of LmDHFR-TS (P07382 whole entry): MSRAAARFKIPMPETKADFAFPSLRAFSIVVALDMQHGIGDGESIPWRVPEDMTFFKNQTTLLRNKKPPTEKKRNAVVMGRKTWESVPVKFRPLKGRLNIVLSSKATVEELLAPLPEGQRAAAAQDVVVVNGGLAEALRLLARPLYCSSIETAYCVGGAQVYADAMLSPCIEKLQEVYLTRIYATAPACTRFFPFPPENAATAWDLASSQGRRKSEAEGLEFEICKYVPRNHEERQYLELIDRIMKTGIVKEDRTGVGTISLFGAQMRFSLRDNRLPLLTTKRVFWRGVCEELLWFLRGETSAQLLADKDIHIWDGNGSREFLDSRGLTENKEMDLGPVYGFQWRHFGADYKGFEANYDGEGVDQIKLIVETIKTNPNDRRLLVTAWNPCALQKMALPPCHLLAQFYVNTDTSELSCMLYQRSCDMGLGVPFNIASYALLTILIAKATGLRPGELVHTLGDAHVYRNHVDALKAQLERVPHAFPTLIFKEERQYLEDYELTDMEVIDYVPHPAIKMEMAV

[4] = biological target: T2, TbPTR1 (Trypanosoma brucei brucei, UniProt O76290); experiment: TbPTR1 inhibition, Cytochrome C coupled spectrophotometric assay; type: biochemical; conditions: for inhibition at 10 µM: primary screening, read-out: percentage of inhibition TbPTR1; for IC50: recombinant protein, standard errors within ± 10%
T2 sequence (O76290 1-268): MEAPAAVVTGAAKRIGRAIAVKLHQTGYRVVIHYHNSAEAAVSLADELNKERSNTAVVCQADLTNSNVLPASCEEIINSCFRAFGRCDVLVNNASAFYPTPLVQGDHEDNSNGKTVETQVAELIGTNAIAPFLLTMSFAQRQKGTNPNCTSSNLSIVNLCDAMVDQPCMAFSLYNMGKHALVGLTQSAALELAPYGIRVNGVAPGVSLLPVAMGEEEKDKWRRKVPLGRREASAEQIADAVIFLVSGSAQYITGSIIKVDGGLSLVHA

[5] = system: T. brucei; parameters: method as in PMID 25740547; conditions: parasite growth inhibition, data from open resource GSK database ref 21, cited from earlier work
[6] = system: L. donovani; parameters: method as in PMID 25740547; conditions: parasite growth inhibition, data from open resource GSK database ref 21, cited from earlier work
[7] = system: T. cruzi; parameters: method as in PMID 25740547; conditions: parasite growth inhibition ref 21; cited from earlier work

Chain of TbDHFR-TS (Q27783 whole entry): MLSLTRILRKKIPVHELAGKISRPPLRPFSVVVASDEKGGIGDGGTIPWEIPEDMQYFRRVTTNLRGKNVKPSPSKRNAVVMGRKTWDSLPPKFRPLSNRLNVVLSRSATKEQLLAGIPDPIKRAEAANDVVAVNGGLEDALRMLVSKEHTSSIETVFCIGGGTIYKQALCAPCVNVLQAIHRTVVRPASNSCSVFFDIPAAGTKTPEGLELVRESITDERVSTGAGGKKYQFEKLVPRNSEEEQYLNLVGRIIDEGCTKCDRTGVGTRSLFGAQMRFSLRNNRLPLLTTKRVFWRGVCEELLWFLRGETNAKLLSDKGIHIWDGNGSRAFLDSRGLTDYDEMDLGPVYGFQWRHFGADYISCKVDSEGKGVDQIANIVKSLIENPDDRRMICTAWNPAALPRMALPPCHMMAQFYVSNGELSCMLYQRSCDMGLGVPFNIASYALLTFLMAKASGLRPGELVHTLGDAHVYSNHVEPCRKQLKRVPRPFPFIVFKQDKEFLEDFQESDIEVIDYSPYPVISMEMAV

| SMILES | IC50 [1] [µM] | IC50 [2] [µM] | IC50 [3] [µM] | inhibition at 10 µM [4] [%] | IC50 [4] [µM] | EC50 [5] [µM] | EC50 [6] [µM] | IC50 TbDHFR [1] | EC50 [7] [µM] | IC50 LmDHFR [3] | inhibition at 10 µM [2] [%] | IC50 ([2]; listed as 143606) [µM] | IC50 ([4]; listed as 143606) [µM] | EC50 ([5]; listed as 143606) [µM] | EC50 ([6]; listed as 143606) [µM] |
| --- | --- | --- | --- | --- | --- | --- | --- | --- | --- | --- | --- | --- | --- | --- | --- |
| Cc1ccc2c(c1)-c1onc(C(=O)N3CCCC[C@H]3c3cccnc3)c1CO2 [TCMDC-143191] | > 40 | 38.5 | > 40 | 51 | 9.8 | 39.8 | > 40 | – | – | – | – | – | – | – | – |
| CN(Cc1cc2ccccc2s1)c1ncc2c(N)nc(N)nc2n1 [TCMDC-143232] | > 40 | 5.9 | 24.4 | – | 10.9 | 28.4 | 29.5 | not active | – | – | – | – | – | – | – |
| N#Cc1cccc(Nc2nccc(N3CCC(NS(=O)(=O)c4cccc(C#N)c4)CC3)n2)c1 [TCMDC-143249] | > 40 | 6 | > 40 | – | 13.5 | 6.3 | 5.6 | inactive; also recorded: no inhibition | 4.2 | inactive; also recorded: no inhibition | – | – | – | – | – |
| COc1ccc(Oc2ccc(C(C)N(C)c3ncc4c(N)nc(N)nc4n3)cc2)cc1 (centres unmarked) [TCMDC-143295] | > 40 | 6.7 | 16.6 | – | 7.9 | – | 0.06 | not active | – | – | – | – | – | – | – |
| CC(c1ccc2c(c1)CCCC2)N(C)c1ncc2c(N)nc(N)nc2n1 (centres unmarked) [TCMDC-143296] | 9.7 | 6.5 | 6.9 | – | 8.6 | 14.2 | 1.8 | – | – | – | – | – | – | – | – |
| CC(c1cc(Cl)cc(Cl)c1)N(C)c1ncc2c(N)nc(N)nc2n1 (centres unmarked) [TCMDC-143297] | 11.6 | 5.7 | 20.1 | – | 9.8 | 35.7 | 0.6 | – | – | – | – | – | – | – | – |
| COc1ccc(C(C)N(C)c2ncc3c(N)nc(N)nc3n2)cc1F (centres unmarked) [TCMDC-143298] | > 40 | 6 | > 40 | – | 8.1 | 8.8 | 10.8 | did not show any activity | – | did not show any activity | – | – | – | – | – |
| O=C1NCCn2ccc(Nc3nc(N[C@H]4CC[C@H](O)CC4)ncc3Cl)c21 [TCMDC-143386] | > 40 | 6.7 | 25.8 | – | 35 | 0.6 | 1.4 | – | – | – | 75 | – | – | – | – |
| Cc1nc2c(-c3ncn[nH]3)cc(NC(=O)Cc3ccccc3)cn2c1C [TCMDC-143459] | > 40 | > 40 | > 40 | 51 | 9.8 | 6.6 | 0.5 | – | – | – | – | – | – | – | – |
| CCN(Cc1nc2ccc(C(=O)N3CCN(c4ncccn4)CC3)cc2[nH]1)C1CCCc2cccnc21 (centres unmarked) [TCMDC-143518] | > 40 | 8.5 | 25 | – | 33.3 | 3.8 | 3.5 | – | – | – | 59 | – | – | – | – |
| CCCc1nc2nc(N)nc(N)c2cc1CC [TCMDC-143606] | > 40 | ~6 | 19.4 | – | ~6 | ~20 | ~20 | – | – | – | – | 6.8 | 6.4 | 22.5 | 27.2 |
| Cc1cc(-c2ccc3ccccc3c2)nc2nc(N)nc(N)c12 [TCMDC-143607] | > 40 | 8.1 | > 40 | – | 7.3 | 25.8 | 2.7 | – | – | – | – | – | – | – | – |
| COc1ccccc1-c1c(C)[nH]c2nc(N)nc(C)c12 [TCMDC-143610] | 38.2 | 9.3 | 40 | – | 7.3 | 32.5 | 17.9 | – | – | – | – | – | – | – | – |
| Cc1cc(N(C)C)nc2ccc(Cc3cnc(N)nc3N)cc12 [TCMDC-143611] | > 40 | 9.8 | > 40 | – | 8.9 | 5 | > 40 | – | – | – | – | – | – | – | – |

From article PMC8704748, “Repurposing the Trypanosomatidic GSK Kinetobox for the Inhibition of Parasitic Pteridine and Dihydrofolate Reductases” (Pharmaceuticals, 2021)
